This is an account of results in patent US20090004185A1, “AMINO-SUBSTITUTED QUINAZOLINE DERIVATIVES AS INHIBITORS OF BETA-CATENIN/TCF-4 PATHWAY AND CANCER TREATMENT AGENTS” (WYETH, priority 2007, published 2009).

For one assay, the system named is β-catenin/Tcf-4. Kind of assay: cells. The format is cell-based. The settings on record: 24 hours of incubation with compound, ratio Firefly/Renilla luciferase. The essentials: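 SW480-derived lines with integrated reporters (Tcf-4-driven firefly luciferase; SV40 firefly as specificity control; SV40 Renilla for cell number/toxicity), treated 24 hours with titrated compounds, final 0.316% DMSO. Dual-luciferase read-out; firefly/Renilla ratio as % of control, duplicate plates, IC50 (nM) from curve fit.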

The next assay deals with SV40-Luc. Kind of assay: SV40-Luc control luciferase reporter assay, SV 5A8 cell line (SV40-Luc and SV40-R-Luc), control for non-specific inhibitors. The format is cell-based, human. Particulars: SV 5A8 cells derived from SW480, 24 hours of incubation with compound, ratio Firefly/Renilla luciferase. The essentials: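 SW480 cells, stably integrated reporters; SV 5A8 = SV40-firefly + SV40-Renilla control line, Tcf 33.13/Tcf 22C11 = Tcf-4-firefly + SV40-Renilla. Cpd titration, 24 h, 0.316% DMSO final. Dual-Luc/Dual-Glo read; F/R ratio (% ctrl, duplicate plates) → IC50.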

The mark [1] stands for this setting: Homo sapiens, SW480, 24 h, Tcf 33.13 cells derived from SW480.
Setting [2] is: Homo sapiens, Tcf22C11, 24 h, Tcf 22C11 cells derived from SW480.
The mark [3] stands for this setting: Tcf 22C11 cells derived from SW480.
The mark [4] stands for this setting: Tcf 33.13 cells derived from SW480.

For the compound `Cc1ccc2c(NCc3ccc(NC(=O)C4CCN(Cc5ccccc5)CC4)cc3)nc(N3CCN(C)CC3)nc2c1` [Example 141, 1-benzyl-N-[4-({[7-methyl-2-(4-methylpiperazin-1-yl)quinazolin-4-yl]amino}methyl)phenyl]piperidine-4-carboxamide], the IC50 (commonly the concentration at which inhibition is half-maximal) in the assay on β-catenin/Tcf-4 (setting [1]) was 1330 nM; with β-catenin/Tcf-4 (setting [2]), 1580 nM; in the assay with SV40-Luc (Homo sapiens, SV5A8, 24 h) it was over 17700 nM.
As for `Cc1ccc2c(NCc3ccc(NC(=O)C4CCN(Cc5ccccc5)CC4)cc3)nc(N(C)Cc3ccccc3)nc2c1` [Example 142, 1-benzyl-N-{4-[({2-[benzyl(methyl)amino]-7-methylquinazolin-4-yl}amino)methyl]phenyl}-piperidine-4-carboxamide], the IC50 was 677 nM in the assay with β-catenin/Tcf-4 (setting [1]); 573 nM in the assay on β-catenin/Tcf-4 (setting [2]); over 4280 nM in the assay on SV40-Luc (Homo sapiens, SV5A8, 24 h).
On to `Cc1ccc2c(NCc3ccc(NC(=O)C4CCN(Cc5ccccc5)CC4)cc3)nc(N3CCN[C@H](C)C3)nc2c1` [Example 143, 1-benzyl-N-{4-[({7-methyl-2-[(3R)-3-methylpiperazin-1-yl]quinazolin-4-yl}amino)methyl]phenyl}piperidine-4-carboxamide], for which the IC50 was 1470 nM with β-catenin/Tcf-4 (setting [1]); 1930 nM in the assay with β-catenin/Tcf-4 (setting [2]); over 8870 nM in the assay with SV40-Luc (Homo sapiens, SV5A8, 24 h).
`Cc1ccc2c(NCc3ccc(NC(=O)C4CCN(Cc5ccccc5)CC4)cc3)nc(N(C)CCN(C)C)nc2c1` [Example 144, 1-benzyl-N-{4-[({2-[[2-(dimethylamino)ethyl](methyl)amino]-7-methylquinazolin-4-yl}amino)methyl]phenyl}piperidine-4-carboxamide]: the 50% inhibitory concentration (IC50) was 1440 nM with β-catenin/Tcf-4 (setting [1]); 2270 nM in the assay with β-catenin/Tcf-4 (setting [2]); over 8840 nM in the assay on SV40-Luc (Homo sapiens, SV5A8, 24 h).
For the compound `Cc1ccc2c(NCc3ccc(NC(=O)C4CCN(Cc5ccccc5)CC4)cc3)nc(N(C)CCc3ccccn3)nc2c1` [Example 145, 1-benzyl-N-{4-[({7-methyl-2-[methyl(2-pyridin-2-ylethyl)amino]quinazolin-4-yl}amino)methyl]phenyl}piperidine-4-carboxamide], the IC50 in the assay with β-catenin/Tcf-4 (setting [1]) was 1230 nM; in the assay on β-catenin/Tcf-4 (setting [2]), 1350 nM; with SV40-Luc (Homo sapiens, SV5A8, 24 h), over 16700 nM.
Taken in the same sequence, the figures for `CN(C)c1nc(NCc2ccc(NC(=O)C3CCN(Cc4ccccc4)CC3)cc2)c2ccccc2n1` [Example 146, 1-benzyl-N-[4-({[2-(dimethylamino)quinazolin-4-yl]amino}methyl)phenyl]piperidine-4-carboxamide] were 1770 nM, 2000 nM and over 10100 nM.
For the compound `CNc1nc(NCc2ccc(NC(=O)C3CCN(Cc4ccccc4)CC3)cc2)c2ccccc2n1` [Example 147, 1-benzyl-N-[4-({[2-(methylamino)quinazolin-4-yl]amino}methyl)phenyl]piperidine-4-carboxamide], the IC50 in the assay with β-catenin/Tcf-4 (setting [1]) was 1250 nM; with β-catenin/Tcf-4 (setting [2]), 1570 nM; with SV40-Luc (Homo sapiens, SV5A8, 24 h) it was over 5200 nM.
`Cc1ccc2nc(N(C)C)nc(NCc3ccc(NC(=O)C4CCN(Cc5ccccc5)CC4)cc3)c2c1` [Example 148, 1-benzyl-N-[4-({[2-(dimethylamino)-6-methylquinazolin-4-yl]amino}methyl)phenyl]piperidine-4-carboxamide]: the half-inhibitory concentration (IC50) in the assay with β-catenin/Tcf-4 (setting [1]) is 1030 nM; in the assay with β-catenin/Tcf-4 (setting [2]), 1070 nM; with SV40-Luc (Homo sapiens, SV5A8, 24 h), over 9170 nM.
On to `CNc1nc(NCc2ccc(NC(=O)C3CCN(Cc4ccccc4)CC3)cc2)c2cc(C)ccc2n1` [Example 149, 1-benzyl-N-[4-({[6-methyl-2-(methylamino)quinazolin-4-yl]amino}methyl)phenyl]piperidine-4-carboxamide], for which the IC50 with β-catenin/Tcf-4 (setting [1]) was 726 nM; in the assay on β-catenin/Tcf-4 (setting [2]), 606 nM; in the assay with SV40-Luc (Homo sapiens, SV5A8, 24 h) it was over 2530 nM.
Take `CN(C)c1nc(NCc2ccc(NC(=O)C3CCN(Cc4ccccc4)CC3)cc2)c2ccc(/C=C/C(C)(C)C)cc2n1` [Example 152, 1-benzyl-N-{4-[({2-(dimethylamino)-7-[(1E)-3,3-dimethylbut-1-en-1-yl]quinazolin-4-yl}amino)methyl]phenyl}piperidine-4-carboxamide]: the IC50 is over 962 nM with β-catenin/Tcf-4 (setting [1]); 1050 nM in the assay with β-catenin/Tcf-4 (setting [2]); over 3850 nM in the assay with SV40-Luc (Homo sapiens, SV5A8, 24 h).
In the case of `C/C=C\c1ccc2c(NCc3ccc(NC(=O)C4CCN(Cc5ccccc5)CC4)cc3)nc(N(C)C)nc2c1` [Example 153, 1-benzyl-N-{4-[({2-(dimethylamino)-7-[(1Z)-prop-1-en-1-yl]quinazolin-4-yl}amino)methyl]phenyl}piperidine-4-carboxamide], the 50% inhibitory concentration (IC50) in the assay with β-catenin/Tcf-4 (setting [1]) was 305 nM; in the assay on β-catenin/Tcf-4 (setting [2]) it was 462 nM; with SV40-Luc (Homo sapiens, SV5A8, 24 h), over 4110 nM.
For `CN(C)c1nc(NCc2ccc(NC(=O)C3CCN(Cc4ccc(F)cc4)CC3)cc2)c2cc(C(F)(F)F)ccc2n1` [Example 154, N-[4-({[2-(dimethylamino)-6-(trifluoromethyl)quinazolin-4-yl]amino}methyl)phenyl]-1-(4-fluorobenzyl)piperidine-4-carboxamide], the IC50 with β-catenin/Tcf-4 (setting [1]) is 4190 nM; in the assay on β-catenin/Tcf-4 (setting [2]), 3590 nM; in the assay with SV40-Luc (Homo sapiens, SV5A8, 24 h), over 8610 nM.
Turning to `O=C(Nc1ccc(CNc2nc(N3CCC3)nc3ccc(C(F)(F)F)cc23)cc1)C1CCN(Cc2ccc(F)cc2)CC1` [Example 155, N-[4-({[2-azetidin-1-yl-6-(trifluoromethyl)quinazolin-4-yl]amino}methyl)phenyl]-1-(4-fluorobenzyl)piperidine-4-carboxamide], the IC50 is 3490 nM in the assay on β-catenin/Tcf-4 (setting [1]); over 2110 nM in the assay with β-catenin/Tcf-4 (setting [2]); over 8440 nM with SV40-Luc (Homo sapiens, SV5A8, 24 h).
Regarding `O=C(Nc1ccc(CNc2nc(N3CCCC3)nc3ccc(C(F)(F)F)cc23)cc1)C1CCN(Cc2ccc(F)cc2)CC1` [Example 156, 1-(4-fluorobenzyl)-N-[4-({[2-pyrrolidin-1-yl-6-(trifluoromethyl)quinazolin-4-yl]amino}methyl)phenyl]piperidine-4-carboxamide], the IC50 in the assay on β-catenin/Tcf-4 (setting [1]) is 3690 nM; in the assay with β-catenin/Tcf-4 (setting [2]), over 4120 nM; with SV40-Luc (Homo sapiens, SV5A8, 24 h), over 8240 nM.
Taken in the same sequence, the figures for `O=C(Nc1ccc(CNc2nc(N3CCN(c4ncccn4)CC3)nc3ccc(C(F)(F)F)cc23)cc1)C1CCN(Cc2ccc(F)cc2)CC1` [Example 157, 1-(4-fluorobenzyl)-N-[4-({[2-(4-pyrimidin-2-ylpiperazin-1-yl)-6-(trifluoromethyl)quinazolin-4-yl]amino}methyl)phenyl]piperidine-4-carboxamide] were over 3570 nM, over 7140 nM and over 7140 nM.
Turning to `CCN(CC)c1nc(NCc2ccc(NC(=O)C3CCN(Cc4ccc(F)cc4)CC3)cc2)c2cc(C(F)(F)F)ccc2n1` [Example 158, N-[4-({[2-(diethylamino)-6-(trifluoromethyl)quinazolin-4-yl]amino}methyl)phenyl]-1-(4-fluorobenzyl)piperidine-4-carboxamide], the IC50 in the assay on β-catenin/Tcf-4 (setting [1]) is 3850 nM; in the assay on β-catenin/Tcf-4 (setting [2]) it was over 4110 nM; in the assay on SV40-Luc (Homo sapiens, SV5A8, 24 h), over 8210 nM.
Turning to `O=C(Nc1ccc(CNc2nc(NC3CCC3)nc3ccc(C(F)(F)F)cc23)cc1)C1CCN(Cc2ccc(F)cc2)CC1` [Example 159, N-[4-({[2-(cyclobutylamino)-6-(trifluoromethyl)quinazolin-4-yl]amino}methyl)phenyl]-1-(4-fluorobenzyl)piperidine-4-carboxamide], the IC50 is over 8240 nM in the assay with β-catenin/Tcf-4 (setting [1]); over 8240 nM in the assay on β-catenin/Tcf-4 (setting [2]); over 8240 nM in the assay on SV40-Luc (Homo sapiens, SV5A8, 24 h).
In the case of `CNc1nc(NCc2ccc(NC(=O)C3CCN(Cc4ccc(F)cc4)CC3)cc2)c2cc(C(F)(F)F)ccc2n1` [Example 160], the half-maximal inhibitory concentration (IC50) was 1450 nM in the assay with β-catenin/Tcf-4 (setting [3]), over 2210 nM in the assay on β-catenin/Tcf-4 (setting [4]) and over 4410 nM in the assay with SV40-Luc.
`CN(C)c1nc(NCc2ccc(NC(=O)c3ccc(Cl)cc3)cc2)c2cc(C(F)(F)F)ccc2n1` [Example 161, 4-chloro-N-[4-({[2-(dimethylamino)-6-(trifluoromethyl)quinazolin-4-yl]amino}methyl)phenyl]benzamide]: the IC50 in the assay on β-catenin/Tcf-4 (setting [1]) was 1520 nM; with β-catenin/Tcf-4 (setting [2]), 1710 nM; with SV40-Luc (Homo sapiens, SV5A8, 24 h), over 10000 nM.
On the same counts, the results for `O=C(Nc1ccc(CNc2nc(N3CCC3)nc3ccc(C(F)(F)F)cc23)cc1)c1ccc(Cl)cc1` [Example 162, N-[4-({[2-azetidin-1-yl-6-(trifluoromethyl)quinazolin-4-yl]amino}methyl)phenyl]-4-chlorobenzamide] are 2230 nM, 3580 nM and over 9770 nM.
With `O=C(Nc1ccc(CNc2nc(N3CCCC3)nc3ccc(C(F)(F)F)cc23)cc1)c1ccc(Cl)cc1` [Example 163], the results for the concentration for half-maximal inhibition (IC50) in the assay with β-catenin/Tcf-4 (setting [3]), in the assay on β-catenin/Tcf-4 (setting [4]) and in the assay on SV40-Luc were 6990 nM, 6550 nM and over 9510 nM, respectively.
Consider `O=C(Nc1ccc(CNc2nc(N3CCN(c4ncccn4)CC3)nc3ccc(C(F)(F)F)cc23)cc1)c1ccc(Cl)cc1` [Example 164, 4-chloro-N-[4-({[2-(4-pyrimidin-2-ylpiperazin-1-yl)-6-(trifluoromethyl)quinazolin-4-yl]amino}methyl)phenyl]benzamide], for which the half-maximal inhibitory concentration (IC50) with β-catenin/Tcf-4 (setting [1]) is 4310 nM; in the assay on β-catenin/Tcf-4 (setting [2]), 5190 nM; in the assay with SV40-Luc (Homo sapiens, SV5A8, 24 h), over 8080 nM.
Take `CCN(CC)c1nc(NCc2ccc(NC(=O)c3ccc(Cl)cc3)cc2)c2cc(C(F)(F)F)ccc2n1` [Example 165, 4-chloro-N-[4-({[2-(diethylamino)-6-(trifluoromethyl)quinazolin-4-yl]amino}methyl)phenyl]benzamide]: the half-inhibitory concentration (IC50) in the assay with β-catenin/Tcf-4 (setting [1]) was 5430 nM; with β-catenin/Tcf-4 (setting [2]), 9640 nM; in the assay on SV40-Luc (Homo sapiens, SV5A8, 24 h) it was over 9470 nM.
